According to article PMC10252016, “Mutation in the Common Docking Domain Affects MAP Kinase ERK2 Catalysis and Stability” (Cancers, 2023):

Legend:
D321E = target: T1, D321E (Homo sapiens, UniProt P28482, D321E); experiment: biochemical; design: Differential scanning fluorimetry, SYPRO Orange, 2 uM ERK2, melting temperature shift with 12 uM inhibitor; details: for ΔTm at 12 µM: read-out: ΔTm D321E
T1 construct: gene MAPK1; recombinant ERK2 D321E
Method: (§1) After 10 min at room temperature, the increase in the fluorescence signal upon the temperature-dependent unfolding of ERK2 proteins was measured with an Mx3005p real-time PCR machine (Stratagene, San Diego, CA, USA).

[1] = target: T2, extracellular-signal-regulated kinase 2 (ERK2) E322K (Homo sapiens, UniProt P28482, E322K); experiment: biochemical; design: Differential scanning fluorimetry, SYPRO Orange, 2 uM ERK2, melting temperature shift with 12 uM inhibitor; details: for ΔTm at 12 µM: read-out: ΔTm E322K
T2 construct: gene MAPK1; recombinant ERK2 E322K
Method: (§2) After 10 min at room temperature, the increase in the fluorescence signal upon the temperature-dependent unfolding of ERK2 proteins was measured with an Mx3005p real-time PCR machine (Stratagene, San Diego, CA, USA). The ∆Tm shifts were calculated, as described, in [36].

D321N = target: T3, D321N (Homo sapiens, UniProt P28482, D321N); experiment: biochemical; design: Differential scanning fluorimetry, SYPRO Orange, 2 uM ERK2, melting temperature shift with 12 uM inhibitor; details: for ΔTm at 12 µM: read-out: ΔTm D321N
T3 construct: gene MAPK1; recombinant ERK2 D321N
Method: as §1

D321A = target: T4, D321A (Homo sapiens, UniProt P28482, D321A); experiment: biochemical; design: Differential scanning fluorimetry, SYPRO Orange, 2 uM ERK2, melting temperature shift with 12 uM inhibitor; details: for ΔTm at 12 µM: read-out: ΔTm D321A
T4 construct: gene MAPK1; recombinant ERK2 D321A
Method: as §1

D321G = target: T5, D321G (Homo sapiens, UniProt P28482, D321G); experiment: biochemical; design: Differential scanning fluorimetry, SYPRO Orange, 2 uM ERK2, melting temperature shift with 12 uM inhibitor; details: for ΔTm at 12 µM: read-out: ΔTm D321G
T5 construct: gene MAPK1; recombinant ERK2 D321G
Method: as §1

D321V = target: T6, D321V (Homo sapiens, UniProt P28482, D321V); experiment: biochemical; design: Differential scanning fluorimetry, SYPRO Orange, 2 uM ERK2, melting temperature shift with 12 uM inhibitor; details: for ΔTm at 12 µM: read-out: ΔTm D321V
T6 construct: gene MAPK1; recombinant ERK2 D321V
Method: as §2

[2] = target: T7, extracellular-signal-regulated kinase 2 (ERK2) (Homo sapiens, UniProt P28482); experiment: biochemical; design: Differential scanning fluorimetry, SYPRO Orange, 2 uM ERK2, melting temperature shift with 12 uM inhibitor; details: for ΔTm at 12 µM: read-out: ΔTm WT
T7 construct: gene MAPK1; recombinant ERK2 wild-type
Method: as §1

[3] = target: T8, non-phosphorylated ERK2 wild-type (extracellular-signal-regulated kinase 2) (human, UniProt P28482 1-360); experiment: ITC; Affinity ITC (TA-Instruments), reversed mode: ERK2 protein (90-145 µM) in the cell, peptide (500 µM) in the syringe; 30 °C; 20 mM Hepes pH 7.5, 0.15 M NaCl, 0.5 mM TCEP; single binding site model; details: both partners purified
T8 construct: ERK2 (MAPK1), human, wild-type; Expressed from pNIC28-Bsa4; also called NP-ERK2 wild-type; NP-ERK2; source: E. coli Rosetta with phosphatase, purified (Ni-NTA, TEV cleavage, second Ni-NTA); not shown: His6, N-terminal, cleaved

[4] = target: T9, phosphorylated ERK2 wild-type (human, UniProt P28482 1-360, phosphorylated at Thr185 and Tyr187); experiment: as above; details: both partners purified
T9 construct: ERK2 (MAPK1), human, wild-type, phosphorylated on T185 and Y187 by co-expressed active MEK1; also called P-ERK2 wild-type; P-ERK2; not shown: His6, N-terminal, cleaved

| Molecule | ΔTm at 12 µM (D321E) [°C] | ΔTm at 12 µM [1] [°C] | ΔTm at 12 µM (D321N) [°C] | ΔTm at 12 µM (D321A) [°C] | ΔTm at 12 µM (D321G) [°C] | ΔTm at 12 µM (D321V) [°C] | ΔTm at 12 µM [2] [°C] | ΔTm D321E (D321E; 12 µM, binder) [°C] | ΔTm E322K ([1]; 12 µM, binder) [°C] | ΔTm D321N (D321N; 12 µM, binder) [°C] | ΔTm D321A (D321A; 12 µM, binder) [°C] | ΔTm D321G (D321G; 12 µM, binder) [°C] | ΔTm D321V (D321V; 12 µM, binder) [°C] | ΔTm WT ([2]; 12 µM, binder) [°C] | Kd [3] [µM] | Kd [4] [µM] |
| --- | --- | --- | --- | --- | --- | --- | --- | --- | --- | --- | --- | --- | --- | --- | --- | --- |
| Nc1[nH]nc2nnc(-c3c(-c4ccccc4)nn4ccccc34)cc12 [FR 180204] | 3.7 | -1.3 | 5.4 | 3.2 | 4.6 | 5 | 2.8 | – | – | – | – | – | – | – | – | – |
| Cn1nccc1Nc1nccc(-c2cc3c(s2)C(C)(C)N(CCN2CCOCC2)C3=O)n1 [LY3214996] | 10.3 | 6.6 | 11.2 | 9.8 | 10.8 | 10 | 9.4 | – | – | – | – | – | – | – | – | – |
| COC[C@H]1Cn2cc(-c3nc(Nc4ccnn4C)ncc3C)nc2C(=O)N1Cc1ccc(F)c(F)c1 [AZD0364] | 13.7 | 10.2 | 14.5 | 13.3 | 13.9 | 13 | 12.8 | – | – | – | – | – | – | – | – | – |
| Cn1nccc1Nc1nccc(-c2ccn([C@H](CO)c3ccc(Cl)c(F)c3)c(=O)c2)n1 [GDC-0994] | – | – | – | – | – | – | – | 11.20 | 6.80 | 12.20 | 10.70 | 11.80 | 10.30 | 10.30 | – | – |
| O=C1Nc2cc3[nH]nc(-c4ccncc4)c3cc2CN1Cc1ccccc1 [KO-947] | 12.8 | 9.2 | 13.6 | 12.3 | 13.1 | 11.8 | 11.8 | – | – | – | – | – | – | – | – | – |
| O=C(Nc1ccc2[nH]nc(-c3ccncc3)c2c1)[C@@H]1CCN(CC(=O)N2CCN(c3ccc(-c4ncccn4)cc3)CC2)C1 [SCH772984] | 11.7 | 8.7 | 12.7 | 11 | 12.2 | 11.6 | 11.6 | – | – | – | – | – | – | – | – | – |
| CC(C)Nc1cc(-c2c[nH]c(C(=O)N[C@H](CO)c3cccc(Cl)c3)c2)c(Cl)cn1 [Ulixertinib] | 8.8 | 4.6 | 9.5 | 8.3 | 9.1 | 8.3 | 7.9 | – | – | – | – | – | – | – | – | – |
| MLARRKPVLPALTINP (docking peptide from MEK2 (MAP2K2), N-terminal stretch; Solubilised in 5% DMSO and diluted in buffer; source: synthetic peptide, bought: GenScript) [pepMEK2, docking peptide derived from the upstream activating kinase MEK2] | – | – | – | – | – | – | – | – | – | – | – | – | – | – | 23.7 | – |
| GIMLRRLQKGNLPVRAL (Solubilised in 5% DMSO and diluted in buffer; also called KIM of DUSP6; KIM peptide DUSP6; source: synthetic peptide, bought: GenScript) [Kinase Interaction Motif (KIM) peptide of DUSP6] | – | – | – | – | – | – | – | – | – | – | – | – | – | – | – | 14.4 |
